Reference: patent publication US20250313577A1, “TRICYCLIC PYRIDONES AND PYRIMIDONES” (ERASCA, INC, priority 2022, published 2025)

Target: T1, KRAS G12C (Homo sapiens, UniProt P01116, G12C)
T1 construct: expressed in transfected cells; host or cells: Ras Initiative (RI) KRAS G12C cells
Assay: phospho-ERK HTRF assay in Ras Initiative (RI) KRAS G12C cells
Type: cell-based
Settings: phospho-ERK1/2 HTRF, 11-point dose response from 2,500 nM, treatment for either 4 hours or 16 hours, read-out: pERK (RI)
Experimental: Inhibition of KRAS G12C-Mediates Phospho-ERK1/2 Inhibition by Compounds of Formula I
This Example illustrates that various compounds of the present disclosure inhibit KRAS G12C thereby mediating the downstream inhibition of phospho-ERK1/2.
KRAS G12C mutant cell lines, NCI H358 (ATCC, CRL-5807), and Ras Initiative (R1) KRAS G12C were cultured according to published protocols and maintained at 37° C. in 5% CO2. The phospho-ERK HTRF assay was executed following provider's protocol (CisBio #64AERPEH). NCI-H358 or RI KRAS G12C cells were plated at a density of 50,000 cells per well in a 96-well plate (Corning #3903) in respective medias (for NCI-H358, RPMI+10% FBS+1% Pen/Strep, and for RI KRAS G12C, DMEM+10% FBS+1% Pen/Strep+4 ug/ml Blasticidin) and maintained at 37° C. in 5% CO2. Cells were allowed to adhere overnight and treated the following day with a Tecan D300e Digital Dispenser (Tecan Group Ltd., Switzerland) using an 11-point dose response starting at 2,500 nM of exemplified compounds followed by sequential 1:3 dilutions for either 4 hours or 16 hours. Following compound treatment, the cells were washed once with ice-cold PBS. Cells were lysed by adding 50 μl of lysis buffer (1×) supplemented with 1× Pierce Halt Protease and Phosphatase inhibitor and incubated for 30 minutes at 4° C. with shaking. After lysis, 16 μL of cell lysate from the 96-well cell-culture plate was transferred to a 384-well plate (Perkin Elmer #6007290). The premixed antibody solution was prepared by mixing (vol/vol) advanced phospho-ERK1/2 d2 antibody and advanced phospho-ERK1/2 Eu Cryptate antibody. The premixed antibody solution ([…]) was added to the detection plate containing cell lysate. The detection plate was incubated overnight at 4° C., the HTRF signal was read the next day by using either a Spectramax M5 or Spectramax i3 microplate reader (Molecular Devices, San Jose, CA, USA), and data was processed according to manufacturer's protocol.
Compounds prepared according to the preceding procedures and characterized for inhibition of p-ERK according to the protocol provided herein are summarized in Table 3: […]

`C=CC(=O)N1[C@H](C)CN(c2nc(=O)n3c4c(c(-c5cc(Cl)c(F)cc5F)c(C(F)(F)F)cc24)SC[C@@H](c2cncc(F)c2)C3)C[C@@H]1C` [Example 109, (3S)-8-((3S,5R)-4-acryloyl-3,5-dimethylpiperazin-1-yl)-11-(5-chloro-2,4-difluorophenyl)-3-(5-fluoropyridin-3-yl)-10-(trifluoromethyl)-3,4-dihydro-2H,6H-[1,4]thiazepino[2,3,4-ij]quinazolin-6-one] and `C=CC(=O)N1[C@H](C)CN(c2nc(=O)n3c4c(c(-c5cc(Cl)c(F)cc5F)c(C(F)(F)F)cc24)SC[C@@H](c2ccncc2)C3)C[C@@H]1C` (single isomer, unassigned) [Example 100A] fall in the same range of IC50: 2 to 20 nM for the first, 2 to 20 nM for the second.

First: C=CC(=O)N1[C@H](C)CN(c2nc(=O)n3c4c(c(-c5cc(Br)c(F)cc5F)c(C(F)(F)F)cc24)SC[C@@H](c2cccnc2)C3)C[C@@H]1C (atropisomer, axis not shown) [Example 108A, (3S,11R)-8-((3S,5R)-4-acryloyl-3,5-dimethylpiperazin-1-yl)-11-(5-bromo-2,4-difluorophenyl)-3-(pyridin-3-yl)-10-(trifluoromethyl)-3,4-dihydro-2H,6H-[1,4]thiazepino[2,3,4-ij]quinazolin-6-one]
Second: C=CC(=O)N1[C@H](C)CN(c2nc(=O)n3c4c(c(-c5cc(Br)c(F)cc5F)c(C(F)(F)F)cc24)SC[C@@H](c2ccccn2)C3)C[C@@H]1C (single isomer, unassigned) [Example 107A]
The IC50 of the first is lower: 0.5 to 2 nM for the first, 2 to 20 nM for the second.

`C=CC(=O)N1[C@H](C)CN(c2nc(=O)n3c4c(c(-c5cc(Cl)c(F)cc5F)c(C(F)(F)F)cc24)SC[C@@H](c2cccnc2)C3)C[C@@H]1C` [Example 104B, (3S,11S)-8-((3S,5R)-4-acryloyl-3,5-dimethylpiperazin-1-yl)-11-(5-chloro-2,4-difluorophenyl)-3-(pyridin-3-yl)-10-(trifluoromethyl)-3,4-dihydro-2H,6H-[1,4]thiazepino[2,3,4-ij]quinazolin-6-one] and `C=CC(=O)N1[C@H](C)CN(c2nc(=O)n3c4c(c(-c5ccc(F)cc5)c(C(F)(F)F)cc24)SCC(c2ccc(F)cc2)C3)C[C@@H]1C` (stereo partly shown) [Example 116] fall in the same range of IC50: 2 to 20 nM for the first, 2 to 20 nM for the second.

Compared with `C=CC(=O)N1[C@H](C)CN(c2nc(=O)n3c4c(c(-c5ccc(F)cc5)c(C(F)(F)F)cc24)SC[C@@H](c2cccs2)C3)C[C@@H]1C` [Example 125, (S)-8-((3S,5R)-4-acryloyl-3,5-dimethylpiperazin-1-yl)-11-(4-fluorophenyl)-3-(thiophen-2-yl)-10-(trifluoromethyl)-3,4-dihydro-2H,6H-[1,4]thiazepino[2,3,4-ij]quinazolin-6-one], `C=CC(=O)N1[C@H](C)CN(c2nc(=O)n3c4c(c(-c5ccc(F)cc5)c(C(F)(F)F)cc24)SC[C@@H](c2ccncc2)C3)C[C@@H]1C` [Example 113, (S)-8-((3S,5R)-4-acryloyl-3,5-dimethylpiperazin-1-yl)-11-(4-fluorophenyl)-3-(pyridin-4-yl)-10-(trifluoromethyl)-3,4-dihydro-2H,6H-[1,4]thiazepino[2,3,4-ij]quinazolin-6-one] is lower in IC50: 2 to 20 nM for the first, 0.5 to 2 nM for the second.

First: C=CC(=O)N1[C@H](C)CN(c2nc(=O)n3c4c(c(-c5ccc(F)cc5F)c(C(F)(F)F)cc24)SC[C@H](c2ccc(F)cc2)C3)C[C@@H]1C (atropisomer, axis not shown) [Example 118]
Second: C=CC(=O)N1[C@H](C)CN(c2nc(=O)n3c4c(c(-c5ccc(F)cc5)c(C(F)(F)F)cc24)SCC(c2ccc(F)cc2)C3)C[C@@H]1C (stereo partly drawn) [Example 115, 8-((3S,5R)-4-acryloyl-3,5-dimethylpiperazin-1-yl)-3,11-bis(4-fluorophenyl)-10-(trifluoromethyl)-3,4-dihydro-2H,6H-[1,4]thiazepino[2,3,4-ij]quinazolin-6-one]
The IC50 of the first is higher: greater than 250 nM for the first, 20 to 250 nM for the second. The second is the more potent here.

Compared with `C=CC(=O)N1[C@H](C)CN(c2nc(=O)n3c4c(c(-c5ccc(F)cc5)c(C(F)(F)F)cc24)SC[C@@H](c2ccccn2)C3)C[C@@H]1C` [Example 106, (R)-8-((3S,5R)-4-acryloyl-3,5-dimethylpiperazin-1-yl)-11-(4-fluorophenyl)-3-(pyridin-2-yl)-10-(trifluoromethyl)-3,4-dihydro-2H,6H-[1,4]thiazepino[2,3,4-ij]quinazolin-6-one], `C=CC(=O)N1[C@H](C)CN(c2nc(=O)n3c4c(c(-c5cc(Cl)c(F)cc5F)c(C(F)(F)F)cc24)SC[C@H](c2ccncc2F)C3)C[C@@H]1C` [Example 111] is higher in IC50: 0.5 to 2 nM for the first, 20 to 250 nM for the second. The first is the more potent here.

First: C=CC(=O)N1[C@H](C)CN(c2nc(=O)n3c4c(c(-c5ccc(F)cc5)c(C(F)(F)F)cc24)SC[C@@H](c2ccncc2F)C3)C[C@@H]1C [Example 114, (S)-8-((3S,5R)-4-acryloyl-3,5-dimethylpiperazin-1-yl)-11-(4-fluorophenyl)-3-(3-fluoropyridin-4-yl)-10-(trifluoromethyl)-3,4-dihydro-2H,6H-[1,4]thiazepino[2,3,4-ij]quinazolin-6-one]
Second: (3R,11S)-8-((3S,5R)-4-acryloyl-3,5-dimethylpiperazin-1-yl)-11-(5-chloro-2,4-difluorophenyl)-3-((S)-3,4-dihydropyridin-4-yl)-10-(trifluoromethyl)-3,4-dihydro-2H,6H-[1,4]thiazepino[2,3,4-ij]quinazolin-6-one [Example 101B]
The IC50 of the first is lower: 0.5 to 2 nM for the first, 20 to 250 nM for the second.

Compared with `C=CC(=O)N1[C@H](C)CN(c2nc(=O)n3c4c(c(-c5cc(Cl)c(F)cc5F)c(C(F)(F)F)cc24)SC[C@@H](c2ccncc2)C3)C[C@@H]1C` (atropisomer, axis not shown) [Example 100B, (3S)-8-((3S,5R)-4-acryloyl-3,5-dimethylpiperazin-1-yl)-11-(5-chloro-2,4-difluorophenyl)-3-(pyridin-4-yl)-10-(trifluoromethyl)-3,4-dihydro-2H,6H-[1,4]thiazepino[2,3,4-ij]quinazolin-6-one], `C=CC(=O)N1[C@H](C)CN(c2nc(=O)n3c4c(c(-c5ccc(F)cc5)c(C(F)(F)F)cc24)SC[C@H](c2cccs2)C3)C[C@@H]1C` [Example 124, (R)-8-((3S,5R)-4-acryloyl-3,5-dimethylpiperazin-1-yl)-11-(4-fluorophenyl)-3-(thiophen-2-yl)-10-(trifluoromethyl)-3,4-dihydro-2H,6H-[1,4]thiazepino[2,3,4-ij]quinazolin-6-one] is higher in IC50: 0.5 to 2 nM for the first, 20 to 250 nM for the second. The first is the more potent here.

`C=CC(=O)N1[C@H](C)CN(c2nc(=O)n3c4c(c(-c5cc(Cl)c(F)cc5F)c(C(F)(F)F)cc24)SC[C@@H](c2ccncc2F)C3)C[C@@H]1C` (single isomer, unassigned) [Example 112A] and `C=CC(=O)N1[C@H](C)CN(c2nc(=O)n3c4c(c(-c5cc(Br)c(F)cc5F)c(C(F)(F)F)cc24)SC[C@@H](c2cccnc2)C3)C[C@@H]1C` [Example 108B, (3S,11S)-8-((3S,5R)-4-acryloyl-3,5-dimethylpiperazin-1-yl)-11-(5-bromo-2,4-difluorophenyl)-3-(pyridin-3-yl)-10-(trifluoromethyl)-3,4-dihydro-2H,6H-[1,4]thiazepino[2,3,4-ij]quinazolin-6-one] fall in the same range of IC50: 2 to 20 nM for the first, 2 to 20 nM for the second.

First: C=CC(=O)N1[C@H](C)CN(c2nc(=O)n3c4c(c(-c5cc(Cl)c(F)cc5F)c(C(F)(F)F)cc24)SC[C@@H](c2ccncc2F)C3)C[C@@H]1C (single isomer, unassigned) [Example 112B]
Second: C=CC(=O)N1[C@H](C)CN(c2nc(=O)n3c4c(c(-c5cc(Br)c(F)cc5F)c(C(F)(F)F)cc24)SC[C@H](c2ccccn2)C3)C[C@@H]1C [Example 103]
The IC50 of the first is lower: 0.5 to 2 nM for the first, greater than 250 nM for the second.

`C=CC(=O)N1[C@H](C)CN(c2nc(=O)n3c4c(c(-c5ccc(F)cc5)c(C(F)(F)F)cc24)SC[C@@H](c2cncc(F)c2)C3)C[C@@H]1C` [Example 126, (S)-8-((3S,5R)-4-acryloyl-3,5-dimethylpiperazin-1-yl)-11-(4-fluorophenyl)-3-(5-fluoropyridin-3-yl)-10-(trifluoromethyl)-3,4-dihydro-2H,6H-[1,4]thiazepino[2,3,4-ij]quinazolin-6-one] and `C=CC(=O)N1[C@H](C)CN(c2nc(=O)n3c4c(c(-c5cc(Cl)c(F)cc5F)c(C(F)(F)F)cc24)SC[C@@H](c2cccnc2)C3)C[C@@H]1C` (atropisomer, axis not shown) [Example 104A, (3S,11R)-8-((3S,5R)-4-acryloyl-3,5-dimethylpiperazin-1-yl)-11-(5-chloro-2,4-difluorophenyl)-3-(pyridin-3-yl)-10-(trifluoromethyl)-3,4-dihydro-2H,6H-[1,4]thiazepino[2,3,4-ij]quinazolin-6-one] fall in the same range of IC50: 0.5 to 2 nM for the first, 0.5 to 2 nM for the second.
